In PubChem BioAssay AID248 (DTP/NCI, 2004):
Toxic doses and inconclusive results are not listed. No stated cut-off is given here; in the data, active means T/C of 150% or more; inactive means T/C below 125%.

System: L1210 leukemia ip in BDF1 mice, survival T/C
Experiment: NCI In Vivo Anticancer Drug Screen. Data for tumor model L1210 Leukemia (intraperitoneal) in B6D2F1 (BDF1) mice
Details: endpoint: mean survival time, higher = longer survival
In short: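 In this screen, tumor-bearing mice given compound are compared to those given vehicle, and their survival values are reported as a treated-to-control quotient.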

[1] = dose: 25.0 mg/kg/injection, schedule: Q01DX009 (ip), vehicle: saline with Tween-80
[2] = dose: 50.0 mg/kg/injection, schedule: Q01DX009 (ip), vehicle: saline with Tween-80
[3] = dose: 100.0 mg/kg/injection, schedule: Q01DX009 (ip), vehicle: saline with Tween-80
[4] = dose: 100.0 mg/kg/injection, schedule: Q01DX001 (ip), vehicle: carboxymethylcellulose (CMC)
[5] = dose: 200.0 mg/kg/injection, schedule: Q01DX001 (ip), vehicle: carboxymethylcellulose (CMC)
[6] = dose: 400.0 mg/kg/injection, schedule: Q01DX001 (ip), vehicle: carboxymethylcellulose (CMC)
[7] = dose: 400.0 mg/kg/injection, schedule: Q04DX002 (ip), vehicle: saline with Tween-80
[8] = dose: 100.0 mg/kg/injection, schedule: Q01DX001 (ip), vehicle: saline
[9] = dose: 200.0 mg/kg/injection, schedule: Q01DX001 (ip), vehicle: saline
[10] = dose: 75.0 mg/kg/injection, schedule: Q01DX001 (ip), vehicle: saline
[11] = dose: 100.0 mg/kg/injection, schedule: Q01DX001 (ip), vehicle: other
[12] = dose: 150.0 mg/kg/injection, schedule: Q01DX001 (ip), vehicle: saline
[13] = dose: 200.0 mg/kg/injection, schedule: Q01DX001 (ip), vehicle: other
[14] = dose: 300.0 mg/kg/injection, schedule: Q01DX001 (ip), vehicle: saline
[15] = dose: 400.0 mg/kg/injection, schedule: Q01DX001 (ip), vehicle: saline
[16] = dose: 12.5 mg/kg/injection, schedule: Q01DX009 (ip), vehicle: saline with Tween-80
[17] = dose: 25.0 mg/kg/injection, schedule: Q04DX003 (ip), vehicle: saline with Tween-80

Measured: T/C

COCOCP(=O)(OC)OC
inactive: dose: 100.0 mg/kg/injection, schedule: Q01DX001 (ip), vehicle: acetone 102 % of control | dose: 100.0 mg/kg/injection, schedule: Q04DX003 (ip), vehicle: acetone 106 % of control | dose: 200.0 mg/kg/injection, schedule: Q01DX001 (ip), vehicle: acetone 98 % of control | dose: 200.0 mg/kg/injection, schedule: Q04DX003 (ip), vehicle: acetone 98 % of control | dose: 400.0 mg/kg/injection, schedule: Q01DX001 (ip), vehicle: acetone 95 % of control | dose: 400.0 mg/kg/injection, schedule: Q04DX003 (ip), vehicle: acetone 92 % of control

Nc1nc(-c2ccccc2)cc(=O)[nH]1
inactive: dose: 100.0 mg/kg/injection, schedule: Q01DX009 (ip), vehicle: Klucel (hydroxypropylcellulose) (HPC) 88 % of control | dose: 200.0 mg/kg/injection, schedule: Q01DX009 (ip), vehicle: Klucel (hydroxypropylcellulose) (HPC) 97 % of control | dose: 400.0 mg/kg/injection, schedule: Q01DX009 (ip), vehicle: Klucel (hydroxypropylcellulose) (HPC) 93 % of control

CC(C)(C)NC1=NCCO1
inactive: [1] 100 % of control | [2] 102 % of control | [3] 96 % of control | dose: 100.0 mg/kg/injection, schedule: Q04DX003 (ip), vehicle: saline with Tween-80 100 % of control

ClCCN(CCCl)c1ccc(C=NCCCN=Cc2ccc(N(CCCl)CCCl)cc2Cl)c(Cl)c1
inactive: [4] 97 % of control | [5] 92 % of control | [6] 95 % of control

OC1C2CCC(C2)[CH]1[Hg][Cl] (configuration not stated)
inactive: dose: 15.0 mg/kg/injection, schedule: Q01DX001 (ip), vehicle: carboxymethylcellulose (CMC) 95 % of control

CCC(CCCN(CC)CCc1ccccc1)OC(=O)c1cc(OC)c(OC)c(OC)c1 (configuration not stated)
inactive: dose: 4.68 mg/kg/injection, schedule: Q01DX009 (ip), vehicle: saline 106 % of control | dose: 9.37 mg/kg/injection, schedule: Q01DX009 (ip), vehicle: saline 100 % of control | dose: 18.75 mg/kg/injection, schedule: Q01DX009 (ip), vehicle: saline 100 % of control | dose: 18.75 mg/kg/injection, schedule: Q04DX003 (ip), vehicle: saline 118 % of control | dose: 37.5 mg/kg/injection, schedule: Q01DX009 (ip), vehicle: saline 100 % of control | dose: 37.5 mg/kg/injection, schedule: Q04DX003 (ip), vehicle: saline 97 % of control | dose: 75.0 mg/kg/injection, schedule: Q01DX009 (ip), vehicle: saline 95 % of control | dose: 75.0 mg/kg/injection, schedule: Q04DX003 (ip), vehicle: saline 103 % of control

c1cc[c]([GeH]([c]2ccccc2)[c]2ccccc2)cc1
inactive: dose: 64.0 mg/kg/injection, schedule: Q04DX002 (ip), vehicle: saline with Tween-80 91 % of control | dose: 160.0 mg/kg/injection, schedule: Q04DX002 (ip), vehicle: saline with Tween-80 94 % of control | [7] 97 % of control

O=C(c1ccc([N+](=O)[O-])cc1)N1C2CCCCCCC21 (configuration not stated)
inactive: dose: 50.0 mg/kg/injection, schedule: Q01DX009 (ip), vehicle: saline 121 % of control | [8] 94 % of control | dose: 100.0 mg/kg/injection, schedule: Q01DX009 (ip), vehicle: saline 113 % of control | [9] 89 % of control | dose: 200.0 mg/kg/injection, schedule: Q01DX009 (ip), vehicle: saline 110 % of control

OCC(O)C(O)C(O)C(Sc1ccccc1)Sc1ccccc1 (configuration not stated)
inactive: [10] 97 % of control | [11] 95 % of control | [12] 102 % of control | [13] 101 % of control | [14] 102 % of control | dose: 400.0 mg/kg/injection, schedule: Q01DX001 (ip), vehicle: other 97 % of control

CN(C)OC(=O)Nc1cccc(C(=O)ON(C)C)c1
inactive: dose: 100.0 mg/kg/injection, schedule: Q04DX002 (ip), vehicle: DMSO 99 % of control | dose: 200.0 mg/kg/injection, schedule: Q04DX002 (ip), vehicle: DMSO 101 % of control | dose: 400.0 mg/kg/injection, schedule: Q04DX002 (ip), vehicle: DMSO 101 % of control

NC(=O)c1ccncc1
inactive: [8] 105 % of control | [9] 104 % of control | [15] 98 % of control

CCOC(=O)c1cc(N(CCOS(C)(=O)=O)CCOS(C)(=O)=O)ccc1[N+](=O)[O-]
inactive: dose: 50.0 mg/kg/injection, schedule: Q01DX001 (ip), vehicle: saline 103 % of control | [8] 97 % of control | [9] 97 % of control | [15] 97 % of control

NNC(=O)c1ccccc1O
inactive: dose: 50.0 mg/kg/injection, schedule: Q01DX001 (ip), vehicle: other 105 % of control | [2] 90 % of control | [11] 100 % of control | [3] 97 % of control | [13] 97 % of control | dose: 200.0 mg/kg/injection, schedule: Q01DX009 (ip), vehicle: saline with Tween-80 102 % of control

O=C(C(=O)c1ccc(O)cc1)c1ccccc1
inactive: [4] 103 % of control | [5] 97 % of control | [6] 97 % of control

Cc1nc(N)c(N)nc1C
inactive: [16] 112 % of control | [1] 101 % of control | [17] 106 % of control | [2] 101 % of control | dose: 50.0 mg/kg/injection, schedule: Q04DX003 (ip), vehicle: saline with Tween-80 101 % of control

O=C(N/N=C\c1ccc(F)cc1)N/N=C/c1ccc(F)cc1
inactive: dose: 100.0 mg/kg/injection, schedule: Q04DX002 (ip), vehicle: saline with Tween-80 93 % of control | dose: 200.0 mg/kg/injection, schedule: Q04DX002 (ip), vehicle: saline with Tween-80 96 % of control | [7] 104 % of control

O=C(C1C2CCC(CC2)C1C(=O)N1CCOCC1)N1CCOCC1 (configuration not stated)
inactive: dose: 100.0 mg/kg/injection, schedule: Q04DX003 (ip), vehicle: saline 100 % of control | dose: 200.0 mg/kg/injection, schedule: Q04DX003 (ip), vehicle: saline 100 % of control | dose: 400.0 mg/kg/injection, schedule: Q04DX003 (ip), vehicle: saline 103 % of control

CC1=Nc2c([nH]cnc2=S)NN1
inactive: dose: 6.25 mg/kg/injection, schedule: Q01DX009 (ip), vehicle: saline with Tween-80 94 % of control | dose: 6.25 mg/kg/injection, schedule: Q04DX003 (ip), vehicle: saline with Tween-80 102 % of control | dose: 12.5 mg/kg/injection, schedule: Q01DX001 (ip), vehicle: saline with Tween-80 87 % of control | [16] 91 % of control | dose: 12.5 mg/kg/injection, schedule: Q04DX003 (ip), vehicle: saline with Tween-80 98 % of control | dose: 25.0 mg/kg/injection, schedule: Q01DX001 (ip), vehicle: saline with Tween-80 102 % of control | [17] 100 % of control

C[n+]1cc2c(CO)cc(CO)cc2c2ccccc21
inactive: [10] 97 % of control | [12] 95 % of control | [14] 97 % of control

Cc1ccc(N=Nc2ccccn2)cc1
inactive: dose: 100.0 mg/kg/injection, schedule: Q04DX002 (ip), vehicle: Klucel (hydroxypropylcellulose) (HPC) 104 % of control | dose: 200.0 mg/kg/injection, schedule: Q04DX002 (ip), vehicle: Klucel (hydroxypropylcellulose) (HPC) 93 % of control | dose: 400.0 mg/kg/injection, schedule: Q04DX002 (ip), vehicle: Klucel (hydroxypropylcellulose) (HPC) 93 % of control
